Reference: patent US20260022142A1, “MACROCYCLIC IMMUNOMODULATORS” (Bristol-Myers Squibb Company, priority 2022, published 2026)
Numbered stars: 1 amine (or outer) side, 2 acyl side, 3 side chain; on linkers, the order of the positions; unused ones are H or OH. Bridge positions count the residues as written; N and C are the ends. Square brackets hold non-standard residues; d marks the D form. Peptide text beside a SMILES is read from it. * marks the point of attachment. ξ: configuration not given here. Phe(4-CH2CH2COOH) = N[C@@H](Cc1ccc(CCC(=O)O)cc1)C(=O)O; Phe(3-CF3) = N[C@@H](Cc1cccc(C(F)(F)F)c1)C(=O)O; Phe(4-COOH) = N[C@@H](Cc1ccc(C(=O)O)cc1)C(=O)O; Bip = N[C@@H](Cc1ccc(-c2ccccc2)cc1)C(=O)O; NH(CH2)16COOH = O=C(O)CCCCCCCCCCCCCCCCN*; NH(CH2)14COOH = O=C(O)CCCCCCCCCCCCCCN*; Phe(3-Me) = Cc1cccc(C[C@H](N)C(=O)O)c1; γGlu = O=C(O)[C@H](CCC(=O)[*:2])N[*:1]; NH(CH2)12COOH = O=C(O)CCCCCCCCCCCCN*; Val(3-OH) = CC(C)(O)[C@H](N)C(=O)O; Cha = N[C@@H](CC1CCCCC1)C(=O)O; Thr(3ξ) = CC(O)[C@H](N)C(=O)O; Carboxymethyl = O=C(O)C*; Nle = CCCC[C@H](N)C(=O)O; Orn = NCCC[C@H](N)C(=O)O; Dab = NCC[C@H](N)C(=O)O; AEEA = NCCOCCOCC(=O)O; CF3 = FC(F)(F)*

What follows are compounds tested against T1, PD-1/PD-L1 interaction (PE-labeled human PD-L1-Ig binding to Jurkat cell line over-expressing human PD-1) (Homo sapiens, UniProt Q15116) (assay: Jurkat-PD-1 Cell Binding High-Content Screening Assay (CBA)). Details: Jurkat cell line over-expressing human PD-1; PE-labeled PD-L1-Ig 20 nM final; read-out: Jurkat hPD1-PDL1 IC50.
T1 construct: expressed in transfected cells; host or cells: Jurkat
T1 sequence (Q15116 25-288): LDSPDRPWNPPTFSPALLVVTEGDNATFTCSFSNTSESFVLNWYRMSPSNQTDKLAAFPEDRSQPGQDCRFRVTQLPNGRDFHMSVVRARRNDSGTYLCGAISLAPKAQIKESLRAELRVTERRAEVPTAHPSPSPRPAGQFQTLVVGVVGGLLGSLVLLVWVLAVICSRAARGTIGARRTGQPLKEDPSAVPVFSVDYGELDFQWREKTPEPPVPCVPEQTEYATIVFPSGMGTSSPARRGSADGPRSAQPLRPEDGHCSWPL
Type: cell-based
How it was run: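 Jurkat cells over-expressing human PD-1 (8×10^3 per well, DMEM/10% FCS) preincubated with compound 2 h at 37° C, then PE-labeled human PD-L1-Ig (20 nM final) added for 1 h. Cells fixed with paraformaldehyde, Hoechst-stained, and bound fluorescence quantified by high-content imaging.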
In the case of `CCCC[C@@H]1NC(=O)CSC[C@@H](C(=O)N[C@@H](CCN)C(=O)NCCCCCCCCCCCCCCC(=O)O)NC(=O)[C@H](C(C)O)NC(=O)[C@H](C(C)(C)O)NC(=O)[C@H](CC2CCCCC2)NC(=O)[C@H](CCN)NC(=O)[C@@H](CC(C)C)NC(=O)[C@H](Cc2cnc[nH]2)NC(=O)[C@H](Cc2ccc(OCC(=O)O)cc2)NC(=O)[C@H](Cc2ccc(-c3ccccc3)cc2)NC(=O)[C@H](Cc2ccc(C(=O)O)cc2)NC(=O)[C@H](Cc2cccc(C(F)(F)F)c2)NC(=O)[C@H](CC(=O)O)NC(=O)[C@H](Cc2ccc(OCC(=O)O)cc2)NC1=O` (stereo partly drawn) [Compound 3863] ({CH2CO}-[Nle]Y(Carboxymethyl)D[Phe(3-CF3)][Phe(4-COOH)][Bip]Y(Carboxymethyl)H[dL][Dab][Cha][Val(3-OH)][Thr(3ξ)]C[Dab]-{NH(CH2)14COOH}; thioether N-14), the IC50 is reported as 430 nM.
`CC(=O)NCCCC[C@@H]1NC(=O)[C@H](C(C)(C)O)NC(=O)[C@H](CC2CCCCC2)NC(=O)[C@H](CCN)NC(=O)[C@@H](CC(C)C)NC(=O)[C@H](CCCN)NC(=O)[C@H](Cc2ccc(C(=O)O)cc2)NC(=O)[C@H](Cc2ccc(-c3ccccc3)cc2)NC(=O)[C@H](Cc2ccc(C(=O)O)cc2)NC(=O)[C@H](Cc2cccc(C)c2)NC(=O)[C@H](CC(=O)O)NC(=O)[C@H](Cc2ccc(OCC(=O)O)cc2)NC(=O)[C@H](Cc2ccc(OCC(=O)O)cc2)NC(=O)CSC[C@@H](C(=O)N[C@@H](CCN)C(=O)NCCCCCCCCCCCCCCC(=O)O)NC1=O` [Compound 3865] ({CH2CO}-Y(Carboxymethyl)Y(Carboxymethyl)D[Phe(3-Me)][Phe(4-COOH)][Bip][Phe(4-COOH)][Orn][dL][Dab][Cha][Val(3-OH)]K(Ac)C[Dab]-{NH(CH2)14COOH}; thioether N-14) was tested, and the IC50 was 119 nM.
In the case of `CC(C)C[C@H]1NC(=O)[C@H](CCCN)NC(=O)[C@H](Cc2ccc(OCC(=O)O)cc2)NC(=O)[C@H](Cc2ccc(-c3ccccc3)cc2)NC(=O)[C@H](Cc2ccc(CCC(=O)O)cc2)NC(=O)[C@H](Cc2cccc(C(F)(F)F)c2)NC(=O)[C@H](CC(=O)O)NC(=O)[C@H](Cc2ccc(OC(F)(F)F)cc2)NC(=O)[C@H](C)NC(=O)CSC[C@@H](C(=O)N[C@@H](CCN)C(=O)NCCCCCCCCCCCCCCC(=O)O)NC(=O)[C@H](CCC(=O)O)NC(=O)[C@H](C(C)C)NC(=O)[C@H](CC2CCCCC2)NC(=O)[C@H](CCN)NC1=O` [Compound 3866] ({CH2CO}-AY(CF3)D[Phe(3-CF3)][Phe(4-CH2CH2COOH)][Bip]Y(Carboxymethyl)[Orn][dL][Dab][Cha]VEC[Dab]-{NH(CH2)14COOH}; thioether N-14), the IC50 is reported as 676 nM.
With `CC(C)C[C@H]1NC(=O)[C@H](Cc2cnc[nH]2)NC(=O)[C@H](Cc2ccc(C(=O)O)cc2)NC(=O)[C@H](Cc2ccc(-c3ccccc3)cc2)NC(=O)[C@H](Cc2ccc(C(=O)O)cc2)NC(=O)[C@H](Cc2cccc(C(F)(F)F)c2)NC(=O)[C@H](CC(=O)O)NC(=O)[C@H](Cc2ccc(C(=O)O)cc2)NC(=O)[C@H](C(C)O)NC(=O)CSC[C@@H](C(=O)N[C@@H](CCN)C(=O)NCCOCCOCC(=O)NCCCCCCCCCCCCC(=O)O)NC(=O)[C@H](CC(=O)O)NC(=O)[C@H](C(C)C)NC(=O)[C@H](CC2CCCCC2)NC(=O)[C@H](CCN)NC1=O` (stereo partly drawn) [Compound 3867] ({CH2CO}-[Thr(3ξ)][Phe(4-COOH)]D[Phe(3-CF3)][Phe(4-COOH)][Bip][Phe(4-COOH)]H[dL][Dab][Cha]VDC[Dab][AEEA]-{NH(CH2)12COOH}; thioether N-14) the IC50 was 48.1 nM.
In the case of `CC(C)C[C@H]1NC(=O)[C@H](CCCN)NC(=O)[C@H](Cc2ccc(OCC(=O)O)cc2)NC(=O)[C@H](Cc2ccc(-c3ccccc3)cc2)NC(=O)[C@H](Cc2ccc(OCC(=O)O)cc2)NC(=O)[C@H](Cc2cccc(C(F)(F)F)c2)NC(=O)[C@H](CC(=O)O)NC(=O)[C@H](Cc2ccc(OCC(=O)O)cc2)NC(=O)[C@H](Cc2c[nH]cn2)NC(=O)CSC[C@@H](C(=O)N[C@@H](CCN)C(=O)NCCCCCCCCCCCCCCC(=O)O)NC(=O)[C@H](CCC(=O)O)NC(=O)[C@H](C(C)(C)O)NC(=O)[C@H](CC2CCCCC2)NC(=O)[C@H](CCN)NC1=O` [Compound 3868] ({CH2CO}-HY(Carboxymethyl)D[Phe(3-CF3)]Y(Carboxymethyl)[Bip]Y(Carboxymethyl)[Orn][dL][Dab][Cha][Val(3-OH)]EC[Dab]-{NH(CH2)14COOH}; thioether N-14), the IC50 is reported as 156 nM.
Compound `Cc1cccc(C[C@@H]2NC(=O)[C@H](CC(=O)O)NC(=O)[C@H](Cc3ccc(OCC(=O)O)cc3)NC(=O)[C@H](C)NC(=O)CSC[C@@H](C(=O)N[C@@H](CCN)C(=O)NCCOCCOCC(=O)NCCOCCOCC(=O)NCCOCCOCC(=O)NCCOCCOCC(=O)NCCCCCCCCCCCCCCC(=O)O)NC(=O)[C@H](CO)NC(=O)[C@H](C(C)(C)O)NC(=O)[C@H](CC3CCCCC3)NC(=O)[C@H](CCN)NC(=O)[C@@H](CC(C)C)NC(=O)[C@H](CCCN)NC(=O)[C@H](Cc3ccc(OCC(=O)O)cc3)NC(=O)[C@H](Cc3ccc(-c4ccccc4)cc3)NC(=O)[C@H](Cc3ccc(OCC(=O)O)cc3)NC2=O)c1` [Compound 3869] ({CH2CO}-AY(Carboxymethyl)D[Phe(3-Me)]Y(Carboxymethyl)[Bip]Y(Carboxymethyl)[Orn][dL][Dab][Cha][Val(3-OH)]SC[Dab][AEEA][AEEA][AEEA][AEEA]-{NH(CH2)14COOH}; thioether N-14) has an IC50 of 71.1 nM.
`Cc1cccc(C[C@@H]2NC(=O)[C@H](CC(=O)O)NC(=O)[C@H](Cc3ccc(OCC(=O)O)cc3)NC(=O)[C@H](C)NC(=O)CSC[C@@H](C(=O)N[C@@H](CCN)C(=O)NCCOCCOCC(=O)NCCOCCOCC(=O)NCCOCCOCC(=O)NCCOCCOCC(=O)NCCCCCCCCCCCCCCC(=O)O)NC(=O)[C@H](Cc3cnc[nH]3)NC(=O)[C@H](C(C)(C)O)NC(=O)[C@H](CC3CCCCC3)NC(=O)[C@H](CCN)NC(=O)[C@@H](CC(C)C)NC(=O)[C@H](CCCN)NC(=O)[C@H](Cc3ccc(OCC(=O)O)cc3)NC(=O)[C@H](Cc3ccc(-c4ccccc4)cc3)NC(=O)[C@H](Cc3ccc(OCC(=O)O)cc3)NC2=O)c1` [Compound 3870] ({CH2CO}-AY(Carboxymethyl)D[Phe(3-Me)]Y(Carboxymethyl)[Bip]Y(Carboxymethyl)[Orn][dL][Dab][Cha][Val(3-OH)]HC[Dab][AEEA][AEEA][AEEA][AEEA]-{NH(CH2)14COOH}; thioether N-14) was tested, and the IC50 was 28 nM.
In the case of `Cc1cccc(C[C@@H]2NC(=O)[C@H](CC(=O)O)NC(=O)[C@H](Cc3ccc(OCC(=O)O)cc3)NC(=O)[C@H](C)NC(=O)CSC[C@@H](C(=O)N[C@@H](CCN)C(=O)NCCOCCOCC(=O)NCCOCCOCC(=O)N[C@@H](CCC(=O)N[C@@H](CCC(=O)NCCCCCCCCCCCCCCCCC(=O)O)C(=O)O)C(=O)O)NC(=O)[C@H](Cc3c[nH]cn3)NC(=O)[C@H](C(C)(C)O)NC(=O)[C@H](CC3CCCCC3)NC(=O)[C@H](CCN)NC(=O)[C@@H](CC(C)C)NC(=O)[C@H](CCCN)NC(=O)[C@H](Cc3ccc(OCC(=O)O)cc3)NC(=O)[C@H](Cc3ccc(-c4ccccc4)cc3)NC(=O)[C@H](Cc3ccc(OCC(=O)O)cc3)NC2=O)c1` [Compound 3871] ({CH2CO}-AY(Carboxymethyl)D[Phe(3-Me)]Y(Carboxymethyl)[Bip]Y(Carboxymethyl)[Orn][dL][Dab][Cha][Val(3-OH)]HC[Dab][AEEA][AEEA][γGlu][γGlu]-{NH(CH2)16COOH}; thioether N-14), the IC50 is reported as 45.7 nM.
Work on `CC(C)C[C@H]1NC(=O)[C@H](CCCN)NC(=O)[C@H](Cc2ccc(OCC(=O)O)cc2)NC(=O)[C@H](Cc2ccc(-c3ccccc3)cc2)NC(=O)[C@H](Cc2ccc(OCC(=O)O)cc2)NC(=O)[C@H](Cc2cccc(C(F)(F)F)c2)NC(=O)[C@H](CC(=O)O)NC(=O)[C@H](Cc2ccc(OCC(=O)O)cc2)NC(=O)[C@H](Cc2ccc(OCC(=O)O)cc2)NC(=O)CSC[C@@H](C(=O)N[C@@H](CCN)C(=O)NCCOCCOCC(=O)NCCOCCOCC(=O)N[C@@H](CCC(=O)N[C@@H](CCC(=O)NCCCCCCCCCCCCCCC(=O)O)C(=O)O)C(=O)O)NC(=O)[C@H](Cc2cnc[nH]2)NC(=O)[C@H](C(C)(C)O)NC(=O)[C@H](CC2CCCCC2)NC(=O)[C@H](CCN)NC1=O` [Compound 3872] ({CH2CO}-Y(Carboxymethyl)Y(Carboxymethyl)D[Phe(3-CF3)]Y(Carboxymethyl)[Bip]Y(Carboxymethyl)[Orn][dL][Dab][Cha][Val(3-OH)]HC[Dab][AEEA][AEEA][γGlu][γGlu]-{NH(CH2)14COOH}; thioether N-14) yielded an IC50 of 174 nM.
In the case of `CC(C)C[C@@H]1NC(=O)CSC[C@@H](C(=O)N[C@@H](CCN)C(=O)NCCCCCCCCCCCCC(=O)O)NC(=O)[C@H](Cc2cnc[nH]2)NC(=O)[C@H](C(C)(C)O)NC(=O)[C@H](CC2CCCCC2)NC(=O)[C@H](CCN)NC(=O)[C@@H](CC(C)C)NC(=O)[C@H](CCCN)NC(=O)[C@H](Cc2ccc(OCC(=O)O)cc2)NC(=O)[C@H](Cc2ccc(-c3ccccc3)cc2)NC(=O)[C@H](Cc2ccc(OCC(=O)O)cc2)NC(=O)[C@H](Cc2cccc(C(F)(F)F)c2)NC(=O)[C@H](CC(=O)O)NC(=O)[C@H](Cc2ccc(OCC(=O)O)cc2)NC1=O` [Compound 3873] ({CH2CO}-LY(Carboxymethyl)D[Phe(3-CF3)]Y(Carboxymethyl)[Bip]Y(Carboxymethyl)[Orn][dL][Dab][Cha][Val(3-OH)]HC[Dab]-{NH(CH2)12COOH}; thioether N-14), the IC50 is reported as 70.5 nM.
In the case of `CC(C)C[C@@H]1NC(=O)CSC[C@@H](C(=O)N[C@@H](CCN)C(=O)NCCCCCCCCCCCCCCC(=O)O)NC(=O)[C@H](CCC(=O)O)NC(=O)[C@H](C(C)(C)O)NC(=O)[C@H](CC2CCCCC2)NC(=O)[C@H](CCN)NC(=O)[C@@H](CC(C)C)NC(=O)[C@H](CCCN)NC(=O)[C@H](Cc2ccc(OCC(=O)O)cc2)NC(=O)[C@H](Cc2ccc(-c3ccccc3)cc2)NC(=O)[C@H](Cc2ccc(OCC(=O)O)cc2)NC(=O)[C@H](Cc2cccc(C(F)(F)F)c2)NC(=O)[C@H](CC(=O)O)NC(=O)[C@H](Cc2ccc(OCC(=O)O)cc2)NC1=O` [Compound 3874] ({CH2CO}-LY(Carboxymethyl)D[Phe(3-CF3)]Y(Carboxymethyl)[Bip]Y(Carboxymethyl)[Orn][dL][Dab][Cha][Val(3-OH)]EC[Dab]-{NH(CH2)14COOH}; thioether N-14), the IC50 is reported as 815 nM.
